Measured values published in patent publication US12071438B2, “Crystal forms of an ALK2 inhibitor” (Keros Therapeutics, Inc., priority 2018, dated 2024).

Experiments:
Type in all cases: physicochemical
[1] = 97% RH stress in polymorph screening study; conditions: RT, no solvent
XRPD analysis after DVS = conditions: post-DVS
Method: X-ray powder diffraction (XRPD) patterns were collected on a Bruker D8 diffractometer using Cu Kα radiation (40 kV, 40 mA), θ-2θ goniometer and divergence of 0.6 mm and receiving slits, and a Lynxeye detector. The instrument is performance checked using a certified Corundum standard (NIST 1976). The software used for data collection was Diffrac Plus XRD Commander v2.6.1 and the data were analyzed and presented using Materials Data Jade Software v 9.7.0. Samples were prepared by transferring 2 to 50 mg of sample to a zero background holder coated with a thin layer of petroleum jelly and leveled with a glass plate and analyzed at ambient temperature. The sample was rotated in its own plane during analysis.
(§1) Dynamic vapor sortion/desportion (DVS) analysis was conducted with a Hiden Isochema, IGAsorp, s/n IGSA 126. Samples were loaded in to a tared basket on the instrument and dried for 1 hour at 40° C. Samples were then analyzed at 25° C. with the following percent relative humidity (% RH) steps: Adsorption (% RH): 0.0, 10.0, 20.0, 30.0, 40.0, 50.0, 60.0, 70.0, 80.0, 90.0, 95.0, Desorption (% RH): 90.0, 80.0, 70.0, 60.0, 50.0, 40.0, 30.0, 20.0, 10.0, 0.0.

[2] = Form A and Form B competitive slurries (thermodynamically stable polymorph)
Method: To determine the thermodynamically stable polymorph between anhydrous Forms A and B, competitive slurries were conducted in three different solvent systems: ethanol, tetrahydrofuran, and 2-butanone (MEK)/water (95:5). Ethanol and tetrahydrofuran were chosen based on the solubility of the material. MEK was chosen as a potential process solvent and water was added to boost the solubility.
Thus, additional competitive slurries were conducted in three additional solvent systems: ethanol/heptane (1:5), ethyl acetate/water (97:3), and isopropanol/water (99:1). The ethanol/heptane system was evaluated at −15° C., 5° C., ambient (RT), and 40° C. The water containing systems were only evaluated at ambient temperature. The slurries were conducted for 7 days instead of 5 days, as done in the above slurries. Form D was also included in the competitive slurries containing water.

[3] = Dynamic vapor sorption/desorption (DVS); conditions: for hygroscopicity by DVS / DVS weight gain and loss: 25° C.; for hygroscopicity by DVS: 0-95% RH; for DVS weight gain and loss: adsorption 0-95% RH, desorption to 0% RH
Method: as §1

Row | SMILES | XRPD after DVS analysis (form change) (XRPD analysis after DVS) | hygroscopicity by DVS [3] | DVS weight gain and loss [3] [%] | other results
1 | COc1cc2c(-c3cnn4cc(N5CCC(N6CCN(C)CC6)CC5)cnc34)ccnc2cc1F | – | – | – | XRPD Result [1]: Form C,
2 | COc1cc2c(-c3cnn4cc(N5CCC(N6CCN(C)CC6)CC5)cnc34)ccnc2cc1F [Form A] | becomes highly disordered and converts to the hydrate, Form C | hygroscopic | 38 | polymorph stability over time (competitive slurries) ([2]; 40° C. down to −15° C., 7 days versus 5 days): most stable polymorph; thermodynamic stability at low water activity ([2]; low water activity (99:1 IPA/water)): most thermodynamically stable; hygroscopicity by DVS below 80% RH ([3]; below 80% RH): non-hygroscopic
3 | COc1cc2c(-c3cnn4cc(N5CCC(N6CCN(C)CC6)CC5)cnc34)ccnc2cc1F [Form C] | – | – | – | thermodynamic stability at high water activity ([2]; high water activity (97:3 EtOAc/water)): more favored
4 | COc1cc2c(-c3cnn4cc(N5CCC(N6CCN(C)CC6)CC5)cnc34)ccnc2cc1F [compound of Formula I free base, 7-fluoro-6-methoxy-4-(6-(4-(4-methylpiperazin-1-yl)piperidin-1-yl)pyrazolo[1,5-a]pyrimidin-3-yl)quinoline] | No change | non-hygroscopic | 0.5 | –
5 | COc1cc2c(-c3cnn4cc(N5CCC(N6CCN(C)CC6)CC5)cnc34)ccnc2cc1F [Form B] | consistent with Form B | slightly hygroscopic | 12 | moisture gain onset in DVS ([3]; low relative humidities): begins immediately even at low relative humidities
